This is an account of results in US6352709B1, “Localized use of nitric oxide-adducts to prevent internal tissue damage” (NitroMed, Inc., priority 1993, dated 2002).

The subject of test [1] is platelet deposition. The note with it: systemic administration, porcine carotid model; cited from earlier work.
A further test deals with damaged coronary artery. Put plainly: Cyclic flow reductions (CFRs) in damaged, stenosed coronary artery. The class given is in vivo, dogs. The note with it: approximately 0.5 mM NO, given selectively into circumflex coronary artery.
In test [2] the test system is balloon-injured rabbit femoral artery. Put plainly: Neointimal proliferation after balloon injury of femoral artery (morphometry). The format is in vivo. Conditions: 14 days after balloon injury, local delivery 15 minutes. Here is the method:
Femoral arteries were isolated and balloon injured as described below. pS-BSA or pS-NO-BSA were applied in a paired fashion directly into the arterial lumen for 15 minutes and then blood flow was re-established. […] Neointimal proliferation is reported as the absolute neointimal area in FIG. 5A and as a ratio of neointima/media in FIG. 5B in 4-6 segments from each artery. Data are expressed as mean +/− SEM and are derived from 15 vessels in the BSA and S-NO-BSA groups, 11 vessels in the PS-BSA group, 7 vessels in the PS-NO-BSA and SHAM groups, and 5 in the SNP group. *P<0.05, pS-NO-BSA vs. PS-BSA. +/+P<0.05 Sodium nitroprusside vs. pS-BSA for both FIGS. 5A and 5B.
Animal Preparation: All animal preparations were performed within the institutional guidelines of the Brockton/West Roxbury Department of Veteran Affairs Medical Center and Boston University Medical Center, and in accordance with the guiding principles of the American Physiological Society. New Zealand white rabbits (3.5-4.2 kg) of either sex were premedicated with 5 mg/kg intramuscular (IM) xylazine hydrochlolide (Miles Pharmaceuticals, Shawnee Mission, Kans.), and 0.1 mg/kg subcutaneous (SC) atropine sulfate (Lyphomed, Deerfield, Ill.) fifteen minutes prior to the induction of anesthesia. Anesthesia was induced with 40 mg/kg IM ketamine hydrochloride (Fort Dodge Laboratories, Fort Dodge, Ind.) and 5 mg/kg IM acepromazine maleate (Aveco Company, Inc., Fort Dodge, Ind.). Additional doses of ketamine hydrochloride were administered as necessary to maintain anesthesia. For survival studies, 100,000 U penicillin G (Apothecon of Bristol-Myers Squibb, Princeton, N.J.), was administered IM perioperatively. The skin over the femoral arteries was next infiltrated with 1% lidocaine (Astra Pharmaceuticals, Inc., Westborough, Mass.) and the common femoral arteries were exposed from the inguinal ligament to the superficial femoral artery. Arteries were cleared of connective tissue, side branches were ligated, and the superficial femoral artery was suspended with silk ties. A 1.5-to-2.0 cm length of femoral artery was isolated from the circulation proximally and distally with neurosurgical microaneurysm clips. The superficial femoral-artery was cannulated with a 2F Fogarty balloon catheter (American Edwards Laboratories, Santa Ana, Calif.) that was passed into the isolated segment of femoral artery. The balloon was inflated with sufficient air to generate slight resistance and withdrawn three times. A 20 g angiocath was then inserted in the arteriotomy and 1 ml of 25.8 mg/ml PS-NO-BSA or 49.2 mg/ml S-NO-BSA was administered over 15 minutes. The contralateral femoral artery was prepared identically and an appropriate control (25.8 mglml pS-BSA, 49.2 mg/ml BSA or 0.66 mg/ml sodium nitroprusside) was administered. For binding studies, 0.5 ml of [^125I]-labeled nitrosylated albumin or control was administered. Following administration of the agent, the superficial femoral artery was ligated and flow reestablished. Sham-operated animals underwent surgical exposure and sidebranch ligation, but no balloon injury was performed or local delivery administered. The area of balloon injury was marked by surgical staples in the adjacent muscle fascia. For chronic studies, the incision was closed with subcuticular absorbable suture and the animals allowed to recover. For acute studies, blood was allowed to circulate through the treated areas for 15 minutes prior to vessel harvest. In some experiments, a distant control vessel, the right carotid artery, was isolated and harvested without any other manipulation.
A 7F plastic cannula was inserted into the abdominal aorta and the vessels perfused clear with saline followed by fixation at 100 mm Hg pressure with 10% buffered formalin. The vessels were stored in 10% buffered formalin and the samples paraffin-embedded and microtome-sectioned. […]

The subject of test [3] is platelet deposition. Put plainly: Indium-111-labeled platelet deposition on coated, dried and stored PVC tubing placed as femoral artery shunt. The format is in vivo, dog. Conditions: PVC tubing used three days after coating, femoral artery shunt 2 hours. Here is the method:
The inventors conducted an additional experiment to investigate whether S-nitroso-BSA can be used to coat a surface such as polyvinyl chloride (PVC), and in addition, whether such surfaces can be treated at one time, and used at a later time. In this experiment, three pieces of PVC, 3 mm in internal diameter and 2 cm. in length were soaked in BSA for 4 hours, allowed to dry, and placed in a dark place. Three identical pieces of PVC tubing were soaked in an S-nitroso-BSA solution for 4 hours, dried, and also placed in the dark.
Three days after coating, a pair of PVC tubing pieces, one coated with BSA, and one coated with S-nitroso-BSA, were placed as a shunt in each of the two femoral arteries of a dog. The dog was injected with Indium^111-labeled platelets as previously described. Two hours after the PVC shunts were placed in the circulation with radioactive platelets, they were removed and placed in the Nal gamma counter.

For test [4], the system named is platelet deposition. As to the kind of experiment: Indium-111-labeled platelet deposition on coated 5 FR USC1 catheters in femoral arteries. The class given is in vivo, dogs. The note with it: 5 FR catheters in dog femoral arteries 2 hours, counted four minutes, average of three. An excerpt: In addition, three pairs of 5 FR USC1 catheters were studied. One catheter was soaked in 5% BSA, while the other catheter was soaked in a mixture of S-nitroso BSA for one hour. The catheters were rinsed with saline and one each was inserted into the right or left femoral arteries of the dogs described above, and left for two hours. Each catheter was flushed with normal saline every one-half hour, but no heparin was given. The catheters were then removed and rinsed with saline. Equal lengths of the catheters were cut from the distal ends and each one was placed in a Nal gamma counter and the radioactivity was counted for four minutes.

Test [5] relates to platelet deposition. As to the kind of experiment: Indium-111-labeled platelet deposition and thrombus on coated dacron grafts in transected carotid arteries. The note with it: for average percent increase in graft weight due to thrombus formation on the luminal surface: dacron grafts, dog carotid artery, 2 hours, three grafts. The class given is in vivo, dogs. The source says:
This method requires the removal of platelets from an animal or human subject. The platelets are labeled with a radioactive material such as Indium^111, which emits gamma rays, detectable by a gamma counter placed 3 to 6 inches away from the source of radioactive platelets. The labeled platelets are either reinjected into the animal or human […], or contacted with the artificial surface […]. Platelets will adhere to artificial surfaces or acutely damaged arterial surfaces. Thus, the number of normal platelets and radioactive platelets which stick to the surface is an indication of the thrombogenicity of the surface.
First, the inventors coated dacron grafts and cardiac catheters with S-nitroso-bovine serum albumin (BSA). In three separate experiments, an identical pair of 6 mm. (internal diameter) knitted dacron grafts, 5 cm. in length, were prepared for surgical placement in the transected carotid arteries of three anesthetized dogs. No heparin was given. One graft was soaked in 5% BSA and the other graft was soaked in 5% BSA combined with 0.5 mM nitric oxide (producing S-nitroso-BSA) for one hour prior to insertion, and then rinsed in saline. The grafts were sutured in place with a continuous 6-0 proline suture.
Indium^111-labeled platelets are very useful in detecting platelet accumulation on vascular grafts. Therefore, Indium^111-labeled platelets were prepared according to standard methods described in Heyns “Method for Labeling Platelets with In^111-oxine”. In: Platelet Kinetics and Imaging Vol. II, Editors Heyns et al., CRC Press, 1985; and Sheffel et al., J. Nucl. Med., 20: 524-531, 1979, and injected prior to insertion of the grafts. […] The grafts were then placed in a Nal gamma well counter and counted for four minutes.

The test system of test [6] is clotting on the catheter wall. As to the kind of experiment: Clotting on coated 3 FR USC1 catheters implanted in carotid artery. The note with it: catheters soaked 12 hours, in dog carotid artery 6-8 hours, no heparin. The format is in vivo, dogs. Here is the method: In five anesthetized dogs, both carotid arteries were exposed. Two 3 FR USC1 catheters were prepared for arterial implantation. One catheter was soaked in a 5% BSA solution for 12 hours, while the other was soaked in a 5% BSA solution which also contained 1 mg/ml of sodium nitroprusside. One each of the two coated catheters was placed randomly in the right or left carotid artery of the dog through a small incision sealed with a 6-0 proline suture. The catheters were advanced for 5 cm into the arterial lumen. The dogs were not given any heparin. The catheters were removed 6-8 hours later and examined for clotting on the catheter wall and at the site where the catheter entered the carotid wall.

As to `[NH-]c1c[n+](N2CCOCC2)no1` [SIN-1], in the test on platelet deposition [1], the “reduction in platelet deposition” value is given as 2.3 fold.
Consider “S-nitroso-bovine serum albumin [S-nitroso-BSA]”, for which the “passivation of damaged arterial wall compared with sodium nitroprusside” value in the test with damaged coronary artery is “better passivation and the effect lasts longer”. In test [2], the neointima/media ratio is reported as 0.72+/−0.084 and the neointimal area is reported as 1.83+/−0.18 ×10^5 μm^2. Also, the “Indium^111-labeled platelet counts on PVC shunt” value in the test with platelet deposition [3] is listed as 97,510 counts/4 minutes. Moreover, the “Indium^111-labeled platelet counts on catheter” value in the test on platelet deposition [4] is reported as 2,850±800 counts. Further, the “average percent increase in graft weight due to thrombus formation on the luminal surface” value with platelet deposition [5] is 196% +/−71%.
“bovine serum albumin [BSA, reference compound]”: in test [2], the neointima/media ratio is listed as 1.07+/−0.167 and the neointimal area is on record as 2.54+/−0.33 ×10^5 μm^2. For the same molecule, the “clotting on the catheter wall and entry site” value in test [6] was “considerably more clotting”. Moreover, the “Indium^111-labeled platelet counts on PVC shunt” value in the test on platelet deposition [3] was 200,870 counts/4 minutes. Also, the “Indium^111-labeled platelet counts on catheter” value in the test on platelet deposition [4] is 9,000±1,100 counts. The “Indium^111-labeled platelet counts on graft” value in the test on platelet deposition [5] (dacron grafts soaked 1 h, in dog carotid artery 2 hours, average of three grafts) is reported as 654,000 +/−89,000 counts/4 minutes. Besides, in the test on platelet deposition [5], the “average percent increase in graft weight due to thrombus formation on the luminal surface” value came out at 410% +/−97%.
